How the values were obtained:
STZ-treated mice [1] = assay: Blood glucose and body weight in STZ-treated mice, first experiment (not fasted); assay type: in vivo; conditions: for Body weight: STZ 210 mg/kg + compound 4.5 mg/kg i.p., unit not given, in g; for protection of islet β-cells: STZ-induced type 1 diabetes model; for effect on STZ-induced rise of blood glucose: STZ-treated animals, 4.5 mg/kg i.p.; for effect on STZ-induced body weight loss: STZ-treated mice, to day 10
Protocol: Male C57BL/6 mice (12 weeks old) were housed in a specific pathogen-free facility with a 12-h light/dark cycle and given free access to food and water. Animals weighing between 28-31 g were selected for the experiments. In each group, at the start of experiment the body weight among individual animals differed by less than 1-g.
One group of mice received no treatment over the entire experiment. A second group received only 4.5 mg per kg of CCompound1 on days −2, −1, 0, +1, +2, +3, +4, +5, +6 and +7. A third/fourth/fifth/sixth group of animals were treated i.p. with 210 mg/kg of STZ on day 0. The fourth, fifth, and sixth group of animals also received 4.5 mg per kg each of CCompound1 (CC1; 4th group) or CCompound3 (CC3; 5th group), or CCompound19 (CC19; 6th group) on days −2, −1, 0, +1, +2, +3, +4, +5, +6 and +7 (with STZ treatment given on day 0). Each group consisted of 7 animals. Body weight was measured regularly.
CC compounds were dissolved in physiological saline while STZ was dissolved in 100 mM sodium citrate (pH 4.5). All compounds were injected intraperitoneally in 0.5 ml volume. Control animals were injected physiological saline (0.5 ml) on the same days when other groups were treated with CC compounds.
Blood samples were taken from the eye (canthus) of the animals on days −1, 0, +1, +2, +3, +7 and +10, and glucose concentrations in whole blood samples were immediately measured with the commercially available fast Glucose C test. The animals were not fasted prior to taking the blood samples. The results are expressed as the mean values from 7 animals ±std. dev. (S.D.).

STZ-treated mice [2] = assay: STZ-treated mice, second experiment: body weight to day 80 and survival; assay type: in vivo; conditions: STZ + compound
Description: In a second similar experiment performed with 6 mice in each group, the changes in body weight were followed for up to 80 days (when the last STZ-treated mouse died), and survival was followed for up to 100 days.
For the body weight (on the 80th day) and survival the following values were obtained: Untreated (6 survivors), 37.7 g; STZ-treated (one last survivor died on day 80, others survived for 22, 25, 27, 60, 75 days), 26.0 g; CCompound1-treated (6 survivors), 36.0 g; STZ+CCompound1 treated (6 survivors), 33.4 g; STZ+CCompound3-treated (5 survivors; one mouse died on day 78), 32.5 g. At the start of the experiment (day 0), the average body weight ranged from 28.6 to 29.8 g. Accordingly, by day 80, STZ-treated animals that were also treated with CCompound1 and CCompound3 gained about 50% of the weight gained by the untreated animals.

[3] = tested on: AR42J rat pancreatic tumor cell line; assay: MTT proliferation of AR42J pancreatic tumor cells; assay type: cell-based; conditions: 96 h
Description: In the Examples below, an MTT assay was used to determine the relative number of viable cells after treatments. This calorimetric assay is based on the ability of living cells, but not dead cells, to reduce 3-(4,5-dimethyl thiazol-2-yl)-2,5-diphenyltetrazolium bromide. [Carmichael, J, De Graff, W. G., Gazdar, A. F., Minna, J. D. and Mitchell, J. B. (1987) Evaluation of tetrazolium-based semiautomated calorimetric assay: Assessment of chemosensitivity testing. Cancer Res. 47, 936-942], which is hereby incorporated by reference. For this assay, cells were plated in 96-well plates, and the MTT assay was performed as described in the above article both in untreated and treated cell cultures. The MTT assay also was performed at the time when the treatment was started to allow for assessment of the proliferation and survival rates in the control and treated cell cultures. In the MTT assay, higher values mean proportionally higher numbers of viable cells.
The AR42J rat pancreatic tumor cell line, purchased from ATTC (catalog number: CRL-1492), was propagated in modified Ham's medium containing 20% fetal bovine serum. These cells, derived from a transplantable tumor of the exocrine pancreas, contain significant amounts of amylase and other exocrine enzymes and they produce tumors in athymic mice.
For the experiment, cells were split in 96-well plates at 15,000 cells per well. After 24 hours, the medium was changed for fresh medium (0 hour) and various concentrations of CCompound1 and CCompound3 were added and incubations continued for 96 hours. The MTT assay was used to determine the relative number of viable cells. From the data shown in TABLE 13, in the 2-25 μM concentration range CC compounds had only inhibitory effects on the proliferation of pancreatic cancer cells.

[4] = STZ 210 mg/kg i.p. day 0 + compound 4.5 mg/kg i.p. days −2 to +7, day 0
[5] = STZ 210 mg/kg i.p. day 0 + compound 4.5 mg/kg i.p. days −2 to +7, day +1
[6] = STZ 210 mg/kg i.p. day 0 + compound 4.5 mg/kg i.p. days −2 to +7, day +2
[7] = STZ 210 mg/kg i.p. day 0 + compound 4.5 mg/kg i.p. days −2 to +7, day +3
[8] = STZ 210 mg/kg i.p. day 0 + compound 4.5 mg/kg i.p. days −2 to +7, day +7
[9] = STZ 210 mg/kg i.p. day 0 + compound 4.5 mg/kg i.p. days −2 to +7, day +10
[10] = STZ 210 mg/kg i.p. day 0 + compound 4.5 mg/kg i.p. days −2 to +7, day −1

CC[N+](C)(CC)CCOCc1ccc2sc3ccccc3c(=O)c2c1 [CCcompound3]
Body weight (STZ-treated mice [1]; day 0): 28.0 ± 0.9 | Body weight (STZ-treated mice [1]; day +1): 28.2 ± 0.8 | Body weight (STZ-treated mice [1]; day +2): 25.3 ± 0.5 | Body weight (STZ-treated mice [1]; day +3): 25.3 ± 0.6 | Body weight (STZ-treated mice [1]; day +7): 25.2 ± 0.9 | Body weight (STZ-treated mice [1]; day +10): 24.7 ± 1.3 | Blood glucose (STZ-treated mice [1]; [4]): 4.7 ± 0.7 mM | Blood glucose (STZ-treated mice [1]; [5]): 6.5 ± 0.7 mM | Blood glucose (STZ-treated mice [1]; [6]): 10.7 ± 1.1 mM | Blood glucose (STZ-treated mice [1]; [7]): 13.0 ± 1.1 mM | Blood glucose (STZ-treated mice [1]; [8]): 14.2 ± 1.3 mM | Blood glucose (STZ-treated mice [1]; [9]): 13.6 ± 1.6 mM | Blood glucose (STZ-treated mice [1]; [10]): 4.6 ± 0.5 mM | protection of islet β-cells (STZ-treated mice [1]): clearly protected β-cell function | effect on STZ-induced rise of blood glucose (STZ-treated mice [1]): prevent drastic increase in blood glucose level | effect on STZ-induced body weight loss (STZ-treated mice [1]): reduced the effect of STZ on body weight | weight gained by day 80 relative to the weight gained by the untreated animals (STZ-treated mice [2]): about 50% | body weight on the 80th day (STZ-treated mice [2]; 6 mice per group): 32.5 g | survivors (STZ-treated mice [2]; 80th day, 6 mice per group): 5 | A540 (MTT, relative number of viable cells) ([3]; 2 μM): 1.17 | A540 (MTT, relative number of viable cells) ([3]; 5 μM): 0.868 ± 0.093 | A540 (MTT, relative number of viable cells) ([3]; 10 μM): 0.745 ± 0.052 | A540 (MTT, relative number of viable cells) ([3]; 25 μM): 0.675 ± 0.064

C[N+](C)(C)CCC=C1c2ccccc2Sc2ccccc21.[I-] [CCcompound19, N,N,N-trimethyl-3-(9H-thioxanthen-9-ylidene)-propane-1-aminium iodide]
Body weight (STZ-treated mice [1]; day 0): 28.1 ± 0.5 | Body weight (STZ-treated mice [1]; day +1): 28.5 ± 1.2 | Body weight (STZ-treated mice [1]; day +2): 26.4 ± 0.8 | Body weight (STZ-treated mice [1]; day +3): 26.8 ± 1.0 | Body weight (STZ-treated mice [1]; day +7): 26.2 ± 0.9 | Body weight (STZ-treated mice [1]; day +10): 26.4 ± 1.7 | Blood glucose (STZ-treated mice [1]; [4]): 4.8 ± 0.3 mM | Blood glucose (STZ-treated mice [1]; [5]): 5.9 ± 0.6 mM | Blood glucose (STZ-treated mice [1]; [6]): 8.7 ± 0.8 mM | Blood glucose (STZ-treated mice [1]; [7]): 10.5 ± 0.9 mM | Blood glucose (STZ-treated mice [1]; [8]): 12.5 ± 1.1 mM | Blood glucose (STZ-treated mice [1]; [9]): 11.9 ± 1.1 mM | Blood glucose (STZ-treated mice [1]; [10]): 4.3 ± 0.3 mM | protection of islet β-cells (STZ-treated mice [1]): protected islet β-cells | effect on STZ-induced rise of blood glucose (STZ-treated mice [1]): prevent drastic increase in blood glucose level | effect on STZ-induced body weight loss (STZ-treated mice [1]): reduced the effect of STZ on body weight

From patent publication US20090030066A1, “SMALL MOLECULES FOR THE PROTECTION OF PANCREATIC CELLS” (priority 2007, published 2009)
